Some test systems named below: PC-3 prostate; OVCAR-3 ovarian; SW-620 colon; NCI-H226 lung; SK-MEL-5 melanoma; K-562 leukemia; LOX IMVI melanoma; SF-539 CNS; TK-10 renal; HCT-15 colon; OVCAR-5 ovarian; HT29 colon; A549 NSCLC; SF-268 CNS; MDA-MB-435.
What all share (assay): inhibition of tumour cell growth, NCI panel, 48 h

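Following 48 hours of exposure in 96-well plates, responses at five concentrations were used to interpolate endpoints linearly. TGI is the concentration that stops growth completely.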 Where only a bound is given, the exact number is not on record here.

In the case of `C(=C/CCCN1O[C@@H](CCCCCCCCc2cccnc2)[C@H]2CCC[C@H]21)/CCCCCCCCCc1cccnc1`, the TGI in the test on PC-3 prostate amounted to 46.1 µM; with OVCAR-3 ovarian, 36.1 µM; in the test on SW-620 colon it was 91.8 µM; in the test on NCI-H226 lung, 36.8 µM; in the test with SK-MEL-5 melanoma, 43.7 µM; with K-562 leukemia, 29 µM. The TGI in the test with LOX IMVI melanoma was found to be 35.3 µM; with SF-539 CNS it was 34.9 µM; with TK-10 renal, 38.4 µM; in the test on HCT-15 colon, 58.9 µM; with OVCAR-5 ovarian, 41.5 µM; with HT29 colon it was 61.1 µM. Moreover, the TGI with A549 NSCLC worked out at 47.2 µM; in the test on SF-268 CNS it was 63.7 µM; in the test with MDA-MB-435, 38 µM.
`N#C/C(N)=C(\C#N)NC=NCCO`: the TGI with PC-3 prostate, in the test on OVCAR-3 ovarian, with SW-620 colon, with NCI-H226 lung, in the test on SK-MEL-5 melanoma and with K-562 leukemia was greater than 100 µM in each case. The TGI with LOX IMVI melanoma, with SF-539 CNS, in the test on TK-10 renal, with HCT-15 colon, in the test with OVCAR-5 ovarian and with HT29 colon was greater than 100 µM in each case. In addition, the TGI with A549 NSCLC, with SF-268 CNS and with MDA-MB-435 was greater than 100 µM in each case.
Take `Nc1nc(Cl)cc(OCC2(CO)CC=CC2)n1`: the TGI with PC-3 prostate, in the test with OVCAR-3 ovarian, in the test on SW-620 colon, in the test on NCI-H226 lung, in the test with SK-MEL-5 melanoma and in the test with K-562 leukemia was greater than 100 µM in each case. Moreover, the TGI in the test with LOX IMVI melanoma, in the test with SF-539 CNS, in the test on TK-10 renal, in the test on HCT-15 colon, in the test on OVCAR-5 ovarian and with HT29 colon was greater than 100 µM each time. In addition, the TGI in the test with A549 NSCLC, with SF-268 CNS and with MDA-MB-435 was greater than 100 µM throughout.
For the molecule `COc1ccc(C2c3cc4c(cc3OC3(OC)COC(=O)C23)OCO4)c(OC)c1` (stereo not given), the TGI in the test with PC-3 prostate was greater than 100 µM; with OVCAR-3 ovarian, greater than 63 µM; in the test with SW-620 colon it was greater than 100 µM; in the test with NCI-H226 lung, greater than 100 µM; in the test on SK-MEL-5 melanoma, greater than 90.1 µM; in the test on K-562 leukemia it was 34.4 µM. Besides, the TGI in the test on LOX IMVI melanoma was greater than 100 µM; in the test with SF-539 CNS, 21.5 µM; in the test with TK-10 renal, greater than 95.6 µM; in the test with HCT-15 colon, greater than 100 µM; in the test on OVCAR-5 ovarian it was greater than 100 µM; in the test on HT29 colon it was 15.1 µM. For the same molecule, the TGI in the test on A549 NSCLC is greater than 100 µM; in the test with SF-268 CNS it was greater than 100 µM; with MDA-MB-435 it was 5.47 µM.
Regarding `O=c1[nH]c(=O)n(C2COC(CO)C2O)cc1F` (stereo not given), the TGI in the test with PC-3 prostate, in the test with OVCAR-3 ovarian, in the test with SW-620 colon, with NCI-H226 lung, with SK-MEL-5 melanoma and in the test on K-562 leukemia was greater than 100 µM each time. In addition, the TGI with LOX IMVI melanoma, in the test with SF-539 CNS, in the test with TK-10 renal, with HCT-15 colon, in the test with OVCAR-5 ovarian and with HT29 colon was greater than 100 µM each time. Moreover, the TGI in the test on A549 NSCLC, with SF-268 CNS and with MDA-MB-435 was greater than 100 µM each time.
`COc1ccc(S(=O)(=O)n2c3c(c4ccccc42)[C@@H]2[C@@H](CCCN2C(=O)CS(=O)c2ccc(C)cc2)[C@H](Cl)C3)cc1` (stereo not given in full): the TGI in the test on PC-3 prostate, in the test with OVCAR-3 ovarian, in the test with SW-620 colon, in the test with NCI-H226 lung, in the test with SK-MEL-5 melanoma and with K-562 leukemia was greater than 100 µM in each case. Besides, the TGI in the test with LOX IMVI melanoma, in the test with SF-539 CNS, in the test with TK-10 renal, in the test on HCT-15 colon, in the test with OVCAR-5 ovarian and in the test on HT29 colon was greater than 100 µM in each case. Also, the TGI with A549 NSCLC, in the test with SF-268 CNS and in the test on MDA-MB-435 was greater than 100 µM each time.
With `COc1ccc2oc3c(C)cc4c(OC)nnc(OC)c4c3c2c1`, the TGI with PC-3 prostate, in the test on OVCAR-3 ovarian, in the test on SW-620 colon, in the test with NCI-H226 lung, in the test with SK-MEL-5 melanoma and with K-562 leukemia was greater than 100 µM throughout. For the same molecule, the TGI in the test with LOX IMVI melanoma is greater than 100 µM; in the test on SF-539 CNS it was greater than 100 µM; in the test on TK-10 renal, 91.9 µM; in the test on HCT-15 colon it was 63.9 µM; in the test with OVCAR-5 ovarian, greater than 100 µM; in the test with HT29 colon it was greater than 100 µM. Besides, the TGI in the test on A549 NSCLC, in the test with SF-268 CNS and in the test on MDA-MB-435 was greater than 100 µM in each case.
For the molecule `CC(C)C(NC(=O)Oc1ccccc1)C(=O)NC1c2c(Br)sc(Br)c2C(=O)C1O` (stereo not given), the TGI was greater than 25 µM in the test with PC-3 prostate; 8.21 µM in the test with OVCAR-3 ovarian; 11.1 µM in the test on SW-620 colon; greater than 25 µM in the test on NCI-H226 lung; 8.36 µM in the test on SK-MEL-5 melanoma; 17.4 µM with K-562 leukemia. Also, the TGI was 8.91 µM in the test with LOX IMVI melanoma; greater than 25 µM in the test with SF-539 CNS; greater than 25 µM in the test on TK-10 renal; 8.39 µM with HCT-15 colon; 15.4 µM in the test on OVCAR-5 ovarian; 7.71 µM in the test with HT29 colon. The TGI with A549 NSCLC was greater than 25 µM; in the test with SF-268 CNS, 14.1 µM; in the test with MDA-MB-435, 13.1 µM.
With `C/C(=N\NC(N)=S)c1ccc2c(c1)Sc1ccccc1O2`, the TGI was 28.8 µM in the test with PC-3 prostate; 4.52 µM with OVCAR-3 ovarian; greater than 100 µM with SW-620 colon; greater than 100 µM with NCI-H226 lung; 6.83 µM in the test with SK-MEL-5 melanoma; greater than 100 µM in the test on K-562 leukemia. In addition, the TGI with LOX IMVI melanoma is 13.1 µM; in the test with SF-539 CNS, 4.79 µM; with TK-10 renal it was 30.7 µM; with HCT-15 colon it was 4.63 µM; with OVCAR-5 ovarian, greater than 100 µM; with HT29 colon, 5.83 µM. Also, the values for the TGI in the test on A549 NSCLC, in the test with SF-268 CNS and in the test on MDA-MB-435 were 13.5 µM, 8.36 µM and 0.95 µM, respectively.
On to `N=c1oc2ccccc2cc1C(=O)NC12CC3CC(CC(C3)C1)C2`, for which the TGI was greater than 68.9 µM with PC-3 prostate; 37.5 µM in the test on OVCAR-3 ovarian; greater than 100 µM in the test with SW-620 colon; greater than 90.3 µM in the test on NCI-H226 lung; 69.9 µM in the test with SK-MEL-5 melanoma; 72.1 µM in the test on K-562 leukemia. The TGI in the test with LOX IMVI melanoma is greater than 59.8 µM; in the test with SF-539 CNS it was 42 µM; in the test on TK-10 renal it was 43.5 µM; with HCT-15 colon, 67.5 µM; in the test on OVCAR-5 ovarian, greater than 100 µM; with HT29 colon, greater than 100 µM. Besides, the TGI is 73.1 µM in the test with A549 NSCLC, greater than 100 µM with SF-268 CNS and greater than 83.6 µM with MDA-MB-435.
For the molecule `CCOC(=O)CCC(NC(=O)C(N)Cc1ccc(N(CCCl)CCCl)cc1)C(=O)OCC` (stereo not given), the TGI with PC-3 prostate came to 7.9 µM; in the test with OVCAR-3 ovarian, 1.68 µM; in the test on SW-620 colon, 5.3 µM; in the test with NCI-H226 lung, 20.7 µM; with SK-MEL-5 melanoma, 2.93 µM; with K-562 leukemia, 12.7 µM. Also, the TGI was determined as 1.63 µM in the test on LOX IMVI melanoma; 3.38 µM in the test on SF-539 CNS; 4.41 µM with TK-10 renal; 1.93 µM with HCT-15 colon; 7.19 µM with OVCAR-5 ovarian; 3.47 µM with HT29 colon. Moreover, the TGI is greater than 33.4 µM in the test on A549 NSCLC, 4 µM in the test with SF-268 CNS and 3.75 µM with MDA-MB-435.
With `COC(=O)CC(C)(NS(=O)c1ccc(C)cc1)c1ccccc1` (stereo not given), the TGI with PC-3 prostate, in the test on OVCAR-3 ovarian, in the test on SW-620 colon, in the test on NCI-H226 lung, with SK-MEL-5 melanoma and in the test on K-562 leukemia was greater than 100 µM throughout. The TGI with LOX IMVI melanoma, with SF-539 CNS, in the test on TK-10 renal, with HCT-15 colon, in the test with OVCAR-5 ovarian and with HT29 colon was greater than 100 µM in each case. Moreover, the TGI with A549 NSCLC, in the test on SF-268 CNS and in the test on MDA-MB-435 was greater than 100 µM each time.
Regarding `CCCCCCc1cc2cc(-c3cn4ccsc4n3)c(=O)oc2cc1O`, the TGI is greater than 100 µM in the test on PC-3 prostate; greater than 100 µM in the test on OVCAR-3 ovarian; greater than 100 µM with SW-620 colon; greater than 100 µM in the test with NCI-H226 lung; greater than 44.9 µM with SK-MEL-5 melanoma; greater than 100 µM in the test with K-562 leukemia. For the same molecule, the TGI in the test on LOX IMVI melanoma, in the test on SF-539 CNS, in the test with TK-10 renal, with HCT-15 colon, in the test with OVCAR-5 ovarian and in the test on HT29 colon was greater than 100 µM in each case. In addition, the TGI is greater than 100 µM in the test on A549 NSCLC, greater than 89.7 µM with SF-268 CNS and greater than 27.5 µM with MDA-MB-435.
`O=C(O)Cc1ccc([N+](=O)[O-])cc1[N+](=O)[O-]`: the TGI in the test on PC-3 prostate, in the test on OVCAR-3 ovarian, with SW-620 colon, in the test with NCI-H226 lung, in the test on SK-MEL-5 melanoma and in the test on K-562 leukemia was greater than 100 µM throughout. The TGI in the test on LOX IMVI melanoma, in the test on SF-539 CNS, with TK-10 renal, with HCT-15 colon, in the test with OVCAR-5 ovarian and in the test on HT29 colon was greater than 100 µM in each case. The TGI in the test with A549 NSCLC, in the test on SF-268 CNS and in the test with MDA-MB-435 was greater than 100 µM throughout.
`O=C1NC2(CCN(CCc3ccccc3)CC2)Oc2ccccc21`: the TGI with PC-3 prostate is greater than 100 µM; with OVCAR-3 ovarian, greater than 100 µM; with SW-620 colon it was greater than 100 µM; with NCI-H226 lung, greater than 100 µM; in the test on SK-MEL-5 melanoma it was 27.8 µM; with K-562 leukemia, greater than 100 µM. Also, the TGI in the test with LOX IMVI melanoma, in the test on SF-539 CNS, in the test on TK-10 renal, in the test with HCT-15 colon, in the test with OVCAR-5 ovarian and in the test on HT29 colon was greater than 100 µM throughout. In addition, the TGI in the test with A549 NSCLC, in the test on SF-268 CNS and with MDA-MB-435 was greater than 100 µM each time.
With `COCOC1/C=C/CCCCC(=O)C(C)C#CC1` (stereo not given), the TGI in the test with PC-3 prostate worked out at 24 µM; in the test on OVCAR-3 ovarian, 10.9 µM; in the test with SW-620 colon, 3.56 µM; in the test with NCI-H226 lung, 35.3 µM; with SK-MEL-5 melanoma, 15.3 µM; in the test on K-562 leukemia it was 7.66 µM. The TGI in the test on LOX IMVI melanoma worked out at 7.36 µM; with SF-539 CNS it was 11.7 µM; in the test on TK-10 renal, 21.6 µM; in the test on HCT-15 colon, 7.11 µM; with OVCAR-5 ovarian, 26.2 µM; in the test on HT29 colon it was 8.28 µM. Besides, the TGI with A549 NSCLC was 30.1 µM; in the test on SF-268 CNS, 35.1 µM; with MDA-MB-435, 18.3 µM.

The values are drawn from PubChem BioAssay (NCI).
